# Measured values from PMC12881681 (Molecular Pharmacology, 2025).
# Several values for one entry are separate records, joined by “and”; a condition that tells them apart may be missing. Equal values may be shown once. Read-outs that look alike come from different tables or passages of the source.
# Experiments:
# [1] = cancer patients, cited from earlier work; for Cmax: 150 mg/day erlotinib
# [2] = biological target: T1, human liver cytosolic AOX1 (Homo sapiens, UniProt Q06278); type: biochemical; parameters: Enzymatic reaction was initiated by adding human liver cytosol (100 μg); tissue Corning, Inc. (Gentest brand) 452115; host or cells: human liver cytosol, pool of 150 donors; details: 5 mM agent, 10 min; erlotinib 1.5 μM, analogs 2 μM
# T1 sequence (Q06278 1-1338): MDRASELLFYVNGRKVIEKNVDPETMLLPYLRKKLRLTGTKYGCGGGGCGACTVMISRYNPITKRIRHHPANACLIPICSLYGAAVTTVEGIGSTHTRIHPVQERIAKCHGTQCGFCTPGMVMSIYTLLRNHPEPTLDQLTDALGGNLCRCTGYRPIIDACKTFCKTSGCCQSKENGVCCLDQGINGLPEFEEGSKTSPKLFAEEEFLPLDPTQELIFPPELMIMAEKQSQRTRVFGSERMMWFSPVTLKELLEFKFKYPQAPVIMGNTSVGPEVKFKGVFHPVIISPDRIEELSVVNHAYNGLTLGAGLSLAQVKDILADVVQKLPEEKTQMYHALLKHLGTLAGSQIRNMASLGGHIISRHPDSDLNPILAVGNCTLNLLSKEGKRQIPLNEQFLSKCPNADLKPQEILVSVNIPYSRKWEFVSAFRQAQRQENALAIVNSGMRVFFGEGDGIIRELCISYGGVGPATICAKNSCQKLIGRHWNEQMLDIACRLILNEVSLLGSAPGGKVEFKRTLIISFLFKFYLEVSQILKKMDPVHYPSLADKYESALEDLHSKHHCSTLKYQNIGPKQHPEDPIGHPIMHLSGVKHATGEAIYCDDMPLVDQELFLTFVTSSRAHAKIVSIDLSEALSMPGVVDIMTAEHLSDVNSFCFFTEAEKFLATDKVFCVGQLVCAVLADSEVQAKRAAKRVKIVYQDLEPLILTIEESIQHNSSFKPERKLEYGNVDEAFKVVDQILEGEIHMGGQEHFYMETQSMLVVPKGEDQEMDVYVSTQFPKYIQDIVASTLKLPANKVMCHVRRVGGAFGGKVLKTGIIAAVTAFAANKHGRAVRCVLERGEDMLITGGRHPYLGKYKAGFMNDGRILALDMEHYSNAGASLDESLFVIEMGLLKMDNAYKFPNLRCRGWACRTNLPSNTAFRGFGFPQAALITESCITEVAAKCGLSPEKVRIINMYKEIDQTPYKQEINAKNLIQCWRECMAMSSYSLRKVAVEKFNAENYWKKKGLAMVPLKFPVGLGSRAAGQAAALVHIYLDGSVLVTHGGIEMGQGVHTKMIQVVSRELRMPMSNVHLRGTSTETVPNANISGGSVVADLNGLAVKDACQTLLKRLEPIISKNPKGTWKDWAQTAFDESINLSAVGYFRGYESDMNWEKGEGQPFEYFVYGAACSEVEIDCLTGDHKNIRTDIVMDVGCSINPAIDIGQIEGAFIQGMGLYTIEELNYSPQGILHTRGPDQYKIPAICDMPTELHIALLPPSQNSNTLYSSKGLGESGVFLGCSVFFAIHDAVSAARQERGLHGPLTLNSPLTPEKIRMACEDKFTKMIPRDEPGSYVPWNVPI
# Experimental: Potassium ferricyanide (5 mM; oxidizing agent), sodium dithionite (5 mM; reducing agent), or potassium phosphate buffer (vehicle for oxidizing/reducing agent) was preincubated with human liver cytosol (200 μg protein) in a total volume of 100 μL at 37 °C for 10 minutes. […] After a 0 or 6-minute preincubation duration, an aliquot (10 μL) of the secondary incubation mixture was transferred to a prewarmed tertiary incubation mixture (total volume of 200 μL) containing potassium phosphate buffer and carbazeran (15 μM), which yielded a 20-fold dilution of the secondary incubation mixture. The tertiary incubation mixture was incubated for 5 minutes at 37 °C before the enzymatic reaction was terminated with 200 μL of ice-cold acetonitrile containing carbazeran-d4 (2.5 nM final concentration; internal standard for 4-oxo-carbazeran). The residual AOX1 enzyme activity was determined by the carbazeran 4-oxidation assay.
# AOX1 (rat liver cytosol) = test: Inactivation of carbazeran 4-oxidation by rat liver cytosol; type: biochemical; details: 10 μM (raloxifene 0.02 μM), 30-minute preincubation
# Experimental: (§1) Carbazeran 4-oxidation and O^6-benzylguanine 8-oxidation were deployed as AOX1-selective catalytic markers.[27] The assay conditions (amount of cytosolic protein, incubation time, and substrate concentration) for carbazeran 4-oxidation catalyzed by human recombinant AOX1 and human/rat/mouse liver cytosols were optimized previously.[7]^,[25]
# (§2) Enzymatic reaction was initiated by adding human liver cytosol (100 μg). After the specified preincubation duration, an aliquot (10 μL) of the preincubation mixture was transferred to 190 μL of a prewarmed (for 3 minutes at 37 °C) secondary incubation mixture (total volume of 200 μL) containing potassium phosphate buffer and carbazeran (15 μM) or O^6-benzylguanine (150 μM), which yielded a 20-fold dilution of the primary incubation mixture. The secondary incubation mixture was incubated for 5 minutes at 37 °C before the enzymatic reaction was terminated with 200 μL of ice-cold acetonitrile containing carbazeran-d4 (2.5 nM final concentration; internal standard for 4-oxo-carbazeran) or tolbutamide (25 nM final concentration; internal standard for 8-oxo-O^6-benzylguanine). Each sample was immediately mixed by vortex, placed on ice, centrifuged at 16,000g for 15 minutes at 4 °C and stored at –30 °C until ultra-high performance liquid chromatography–tandem mass spectrometry (UPLC-MS/MS) analysis. For enzyme inactivation assays involving rat and mouse liver cytosol and recombinant AOX1 assays, the experimental conditions were similar to those of human liver cytosol, except that the amount of cytosolic protein was 200 μg (rat) and 150 μg (mouse), respectively, and the incubation time of the secondary incubation mixture was 60 minutes. For the recombinant AOX1 enzyme assay, the amount of enzyme was 100 μg, the incubation time of the secondary incubation mixture was 15 minutes, and the total volume of the primary and secondary incubation mixtures was reduced to 100 μL.
# (§3) An aliquot (10 μL) of the primary incubation mixture was transferred to a secondary incubation mixture containing carbazeran (15 μM) and incubated for (A) 180, (B) 5, or (C, D) 120 minutes.
# human recombinant AOX1 = biological target: T2, human recombinant AOX1 (Homo sapiens, UniProt Q06278); test: Time-dependent inactivation of carbazeran 4-oxidation by human recombinant AOX1; type: biochemical; details: each 10 μM (raloxifene 0.02 μM), 30-minute preincubation, vs vehicle control without preincubation
# T2 construct: purchased Cypex Ltd CYP150
# T2 sequence (Q06278 1-1338): T1 sequence (Q06278 1-1338)
# Experimental: as §1, §2, §3
smiles,measurement,setting,value
C#Cc1cccc(Nc2ncnc3cc(OCCOC)c(OCCOC)cc23)c1 [Erlotinib],Cmax,[1]; day 28,5.39 µM
same,Cmax,"[1]; erlotinib in plasma, day 24 to day 28",4.41 to 5.39 µM
same,effect of preincubating cytosol with potassium ferricyanide or sodium dithionite on AOX1 inactivation,[2],neither sodium dithionite nor potassium ferricyanide affected
"C#Cc1cccc(Nc2nc(C)nc3cc(OCCOC)c(OCCOC)cc23)c1 [2-Methylerlotinib, 2-methylerlotinib]",effect of preincubating cytosol with potassium ferricyanide or sodium dithionite on AOX1 inactivation,[2],neither sodium dithionite nor potassium ferricyanide affected
"C#Cc1cccc(Nc2ncnc3cc(OCCOC)c(OCCO)cc23)c1 [O-Desmethylerlotinib, O-desmethylerlotinib]",decrease in carbazeran 4-oxidation,AOX1 (rat liver cytosol),92%–97%
same,decrease in carbazeran 4-oxidation,human recombinant AOX1,91%
"C#Cc1cccc(Nc2ncnc3cc(OCCO)c(OCCO)cc23)c1 [O-Didesmethylerlotinib, O-didesmethylerlotinib]",C24h,[1]; 150 mg/day erlotinib for 1–2 months,0.86–4.2 ng/mL and 2.35–11.49 nM
same,decrease in carbazeran 4-oxidation,AOX1 (rat liver cytosol),92%–97%
same,decrease in carbazeran 4-oxidation,human recombinant AOX1,94%
